Experimental findings from patent US5614521A, “Benzene derivatives having NGF production-promoting activity” (Sankyo Company, Limited, priority 1991, dated 1997) are described below.

Read-outs that look alike come from different tables or passages of the source.

This assay concerns L-M cells. The assay is described as follows: NGF production and secretion by mouse L-M cells (NGF promoter activity), NGF level by enzyme immunoassay. Format: cell-based. The following applies: read-out: % Control (NGF produced and secreted relative to cells not treated with the test compounds); for activity at 10 µg/mL: test compounds of this invention at 10 γ/ml. The text has this: Furukawa et al. have reported that fibroblast-forming L-M cells from mouse connective tissue can produce and secrete a relatively large amount of NGF, and that catecholamines accelerate such production and secretion of NGF (J. Biol. Chem., 261, 6039-6047, 1986). […] The test compounds of this invention were employed at 10 γ/ml, and the known compounds were employed at 20 γ/ml.
Culture medium 199 containing 0.5% peptone was used for culturing L-M cells (for the culture medium 199, see, for instance, Morgan et al., proc. Soc. Exp. Biol. Med., 73, 1 (1950) or Morgan et al. J. Natl. Cancer Inst., 16, 557 (1955). About […] of L-M cells were placed in each well of a culture plate with 24 wells, and cultured using a CO2 incubator (37° C., 5% CO2) until confluence. After removing the culture medium, the cultured cells were washed once with a wash solution which was 199 culture medium containing 0.5% bovine serum albumin (Fraction V, Sigma). The test compounds were added to a specified concentration to a 199 culture medium containing 0.5% bovine serum albumin, and used to treat 0.5 ml of L-M cells. After culturing the L-M cells in a CO2 incubator for 24 hours, the medium was recovered and the NGF level was determined.
NGF was quantitatively determined using an enzyme immunoassay [Korshing, Thoenen, et al. Proc. Natl. Acad. Sci. USA, 80, 3513-3516, (1983)]. 75 μl of a solution of anti-mouse β-NGF antibody (0.3 μg/ml, pH 9.6; Boehringer Mannheim) was piperted into each well of a polystyrene plate with 96 wells. After allowing the plate to stand at room temperature for an hour, the antibody was removed by washing three times with the wash solution. 50 μl of a solution of standard β-NGF (Wako Pure Chemical Industries Ltd.) or of the recovered medium was piperted into the wells. After allowing the plate to stand for […] at room temperature,the standard β-NGF or test solution was removed and each well was washed three times. 50 μl of a solution of β-NGF monoclonal antibody (100 mU/ml, pH 7.0; BoehringerMannheim) labelled with β-galactosidase was piperted into each well. After allowing the plate to stand at 4° C. for 15-18 hours, enzyme labelled antibody was removed and the wells washed three times followed by pipetting 100 μl of a solution of chlorophenol red-β-D-galactopyranoside (1 mg/ml, pH 7.3; BoehringerMannheim) into each well. Color was allowed to develop (after 2-3 hours at room temperature), and the absorbance was determined at 570 nm.
The amount of NGF was calculated from a standard curve. The results are expressed as a relative value (%) which is relative to the amount of NGF produced and secreted by cells treated not with the test compounds. The numerical values (% Control) are expressed by the mean value in the 3 wells of the control (without addition of the test compounds).

[1] abbreviates: known compounds at 20 γ/ml, L-M cells, 24 hours, 37° C.

Consider `CNC[C@H](O)c1ccc(O)c(O)c1` [epinephrine, reference compound], for which the activity at 20 µg/mL (24 h) amounted to 140 ± 24%.
As to `Nc1ccc(CCC(=O)NC23CC4CC(CC(C4)C2)C3)cc1N` [Example 22, N-(1-Adamantyl)-3-(3,4-diaminophenyl)propionamide], the activity at 10 µg/mL (L-M cells, 24 hours, 37° C.) was determined as 380%.
On to `Nc1ccc(CCC(=O)Nc2cnc3ccccc3c2)cc1N` [Example 34, N-(3-Quinolyl)-3-(3,4-diaminophenyl)propiomide], for which, for the setting “L-M cells, 24 hours, 37° C.”, the activity at 10 µg/mL was 606%.
On the same count and under the same terms, then `Nc1ccc(CCC(=O)N(c2ccccc2)c2ccccc2)cc1N` [Example 40, N,N-Diphenyl-3-(3,4-diaminophenyl) propionamide], with 276%.
Turning to `CC(C)NCC(O)c1ccc(O)c(O)c1` (stereo not drawn) [isoproterenol, reference compound], under setting [1], the activity at 20 µg/mL is 168 ± 22%.
For `Nc1ccc(CCC(=O)Nc2ccc(C(=O)c3ccccc3)cc2)cc1N` [Example 43, N-(4-Benzoylphenyl)-3-(3,4-diaminophenyl)propionamide], for the setting “L-M cells, 24 hours, 37° C.”, the activity at 10 µg/mL was determined as 491%.
Same read-out and setting: the figure for `Nc1cc(CCC(=O)NC2CCc3ccccc32)ccc1O` (stereo not drawn) [Example 53, N-(1-Indanyl)-3-(4-hydroxy-3-aminophenyl)propionamide] is 315%.
`N[C@@H](Cc1ccc(O)c(O)c1)C(=O)O` [L-DOPA, reference compound]: the activity at 20 µg/mL under setting [1] is 117 ± 7%.
Take `O=C(O)/C=C/c1ccc(O)c(O)c1` [caffeic Acid, reference compound]: the activity at 20 µg/mL under setting [1] worked out at 123 ± 14%.
